Data from ChEMBL document CHEMBL4725390, “Asymmetrically Substituted Quadruplex-Binding Naphthalene Diimide Showing Potent Activity in Pancreatic Cancer Models” (ACS Med Chem Lett, 2020).
Activity calls are given as the source filed them. The rule behind the calls is not given here.

How the values were obtained:
Quadruplex DNA = assay: Binding affinity to G4 quadruplex DNA in human PANC1 cells assessed as BG4 foci formation at 800 nM after 6 hrs by immunofluorescence based confocal microscopic analysis; format: cell-based; details: PANC-1
CAPAN-1 = assay: Antiproliferative activity against human Capan1 cells assessed as growth inhibition after 96 hrs by SRB assay; format: functional
BXPC-3 = assay: Antiproliferative activity against human BxPC3 cells assessed as growth inhibition after 96 hrs by SRB assay; format: functional
PANC-1 = assay: Antiproliferative activity against human PANC1 cells assessed as growth inhibition after 96 hrs by SRB assay; format: functional
[1] = Half life in rat at 1 mg/kg, iv administered as single dose; format: ADME, organism-based; details: in vivo
MIA PaCa-2 [2] = assay: Antiproliferative activity against human MIAPaCa2 cells assessed as growth inhibition after 96 hrs by SRB assay; format: functional
[3] = Half life in mouse xenografted with human MIAPaCa2 cells at 0.96 mg/kg, iv administered as single dose; format: ADME, organism-based; details: in vivo
[4] = Clearance in mouse xenografted with human MIAPaCa2 cells at 0.96 mg/kg, iv administered as single dose; format: ADME, organism-based; details: in vivo
[5] = Apparent volume of distribution in mouse xenografted with human MIAPaCa2 cells at 0.96 mg/kg, iv administered as single dose; format: ADME, organism-based; details: in vivo, read-out: Vz
[6] = Cmax in mouse xenografted with human MIAPaCa2 cells at 0.96 mg/kg, iv administered as single dose; format: ADME, organism-based; set-up: route intravenous, dose 0.96 mg/kg; details: in vivo
[7] = AUC (infinity) in mouse xenografted with human MIAPaCa2 cells at 0.96 mg/kg, iv administered as single dose; format: ADME, organism-based; set-up: time infinity, route intravenous, dose 0.96 mg/kg; details: in vivo
MIA PaCa-2 [8] = assay: Antitumor activity against human MIAPaCa2 cells xenografted in mouse assessed as mean tumor volume at 1 mg/kg, iv administered once per week for 28 days and measured at day 28 by Caliper method (reference value: 0.45 +/- 0.18 cm3); format: functional; details: time 28 day
MIA PaCa-2 [9] = assay: Antitumor activity against human MIAPaCa2 cells xenografted in mouse assessed as mean tumor volume at 1 mg/kg, iv administered twice per week for 28 days and measured at day 28 by Caliper method (reference value: 0.45 +/- 0.18 cm3); format: functional; details: time 28 day
MIA PaCa-2 [10] = assay: Antitumor activity against human MIAPaCa2 cells xenografted in mouse assessed as change in tumor volume at 1 mg/kg, iv administered twice per week for 28 days and measured at day 28 by Caliper method relative to control; format: functional; details: time 28 day
MIA PaCa-2 [11] = assay: Antitumor activity against human MIAPaCa2 cells xenografted in mouse assessed as mean tumor volume at 1 mg/kg, iv administered twice per week for 28 days and measured at day 53 by Caliper method (reference value: 1.60 +/- 0.44 cm3); format: functional; details: time 28 day
MIA PaCa-2 [12] = assay: Antitumor activity against human MIAPaCa2 cells xenografted in mouse assessed as change in tumor volume at 1 mg/kg, iv administered twice per week for 28 days and measured at day 53 by Caliper method relative to control; format: functional; details: time 28 day
[13] = Downregulation of WNT5B mRNA expression in human MIAPaCa2 cells at 40 nM after 6 hrs by RNA sequencing analysis relative to control; format: functional, MIA PaCa-2
[14] = Downregulation of DVL1 mRNA expression in human MIAPaCa2 cells at 40 nM after 6 hrs by RNA sequencing analysis relative to control; format: functional, MIA PaCa-2
[15] = Downregulation of GLI1 mRNA expression in human MIAPaCa2 cells at 40 nM after 6 hrs by RNA sequencing analysis relative to control; format: functional, MIA PaCa-2
[16] = Downregulation of MAPK11 mRNA expression in human MIAPaCa2 cells at 40 nM after 6 hrs by RNA sequencing analysis relative to control; format: functional, MIA PaCa-2
[17] = Downregulation of Bcl2 mRNA expression in human MIAPaCa2 cells at 40 nM after 6 hrs by RNA sequencing analysis relative to control; format: functional, MIA PaCa-2
[18] = Downregulation of hTERT mRNA expression in human MIAPaCa2 cells at 40 nM after 6 hrs by RNA sequencing analysis relative to control; format: functional, MIA PaCa-2
[19] = Downregulation of WNT5B mRNA expression in human MIAPaCa2 cells at 40 nM after 24 hrs by RNA sequencing analysis relative to control; format: functional, MIA PaCa-2
[20] = Downregulation of DVL1 mRNA expression in human MIAPaCa2 cells at 40 nM after 24 hrs by RNA sequencing analysis relative to control; format: functional, MIA PaCa-2
[21] = Downregulation of APC2 mRNA expression in human MIAPaCa2 cells at 40 nM after 24 hrs by RNA sequencing analysis relative to control; format: functional, MIA PaCa-2
[22] = Downregulation of GLI1 mRNA expression in human MIAPaCa2 cells at 40 nM after 24 hrs by RNA sequencing analysis relative to control; format: functional, MIA PaCa-2
[23] = Downregulation of MAPK11 mRNA expression in human MIAPaCa2 cells at 40 nM after 24 hrs by RNA sequencing analysis relative to control; format: functional, MIA PaCa-2
[24] = Downregulation of Bcl2 mRNA expression in human MIAPaCa2 cells at 40 nM after 24 hrs by RNA sequencing analysis relative to control; format: functional, MIA PaCa-2
[25] = Toxicity in mouse xenografted with human MIAPaCa2 cells assessed as effect on cardiac clinical signs at 1 mg/kg, iv administered once per week for 28 days; format: organism-based; details: in vivo, 672 h, time 28 day
MIA PaCa-2 [26] = assay: Downregulation of Wnt signaling pathway related gene expression in human MIAPaCa2 cells at 40 nM after 6 hrs by RNA sequencing analysis; format: functional, cell-based
MIA PaCa-2 [27] = assay: Downregulation of axon guidance related gene expression in human MIAPaCa2 cells at 40 nM after 24 hrs by RNA sequencing analysis; format: functional, cell-based
MIA PaCa-2 [28] = assay: Downregulation of Wnt signaling pathway related gene expression in human MIAPaCa2 cells at 40 nM after 24 hrs by RNA sequencing analysis; format: functional, cell-based
[29] = Toxicity in mouse xenografted with human MIAPaCa2 cells assessed as drug tolerability at 1 mg/kg, iv administered twice per week for 28 days; format: organism-based; details: in vivo, 672 h, time 28 day
[30] = Toxicity in mouse xenografted with human MIAPaCa2 cells assessed as effect on cardiac clinical signs at 1 mg/kg, iv administered twice per week for 28 days; format: organism-based; details: in vivo, 672 h, time 28 day
[31] = Toxicity in mouse xenografted with human MIAPaCa2 cells assessed as effect on neuronal clinical signs at 1 mg/kg, iv administered twice per week for 28 days; format: organism-based; details: in vivo, 672 h, time 28 day
Mus musculus [32] = assay: Up regulation of cleaved PARP protein expression in mouse xenografted with human MIAPaCa2 cells at 1 mg/kg, iv administered once per week for 28 days measured on day 28 by Western blot analysis; format: functional, organism-based; details: time 28.0 day
Mus musculus [33] = assay: Effect on hTERT expression in mouse xenografted with human MIAPaCa2 cells at 1 mg/kg, iv administered twice per week for 28 days and measured on day 28 by Western blot analysis; format: functional, organism-based; details: time 28.0 day
MIA PaCa-2 [34] = assay: Potency index, ratio of 2,7-bis(3-morpholinopropyl)-4-((2-(pyrrolidin-1-yl)ethyl)amino)benzo[lmn][3,8]phenanthroline-1,3,6,8(2H,7H)-tetraone IC50 to test compound IC50 for human MIAPaCa2 cells measured after 96 hrs by SRB assay; format: functional

For O=C1c2cc(-c3ccc(CN4CCCC4)cc3)c3c4c(cc(NCCN5CCCC5)c(c24)C(=O)N1CCCN1CCOCC1)C(=O)N(CCCN1CCOCC1)C3=O [QN-302], the Activity (Quadruplex DNA) was “inactive”, the GI50 (CAPAN-1) was 5.9 nM and the GI50 (BXPC-3) was 2.6 nM. The GI50 (PANC-1) was 1.4 nM, the half-life [1] was 36 h and the GI50 (MIA PaCa-2 [2]) was 1.3 nM. The half-life [3] was 37 h, the clearance [4] was 2.2 mL/min/kg and the Vd [5] was 6.9 L/kg. For the same compound, the Cmax [6] was 4180 ng/mL, the AUC(0-inf) [7] was 8270 ng·h/mL and the Activity (MIA PaCa-2 [8]) was 0.08 cm3. It also gave an Activity (MIA PaCa-2 [9]) of 0.06 cm3, an Activity (MIA PaCa-2 [10]) of -86.6% and an Activity (MIA PaCa-2 [11]) of 0.15 cm3. The Activity (MIA PaCa-2 [12]) was -90.6%, the log2FC [13] was 2.25 and the log2FC [14] was 1.48. For the same compound, the log2FC [15] was 0.66, the log2FC [16] was 0.71 and the log2FC [17] was 0.58. The log2FC [18] was 2.29, the log2FC [19] was 0.57 and the log2FC [20] was 0.77. It also gave a log2FC [21] of 1.06, a log2FC [22] of 1.84 and a log2FC [23] of 1.72. The log2FC [24] was 1.75, the Activity [25] was “Non-Toxic” and the inhibition (MIA PaCa-2 [26]) was “Active”. The inhibition (MIA PaCa-2 [27]) was “Active”, the inhibition (MIA PaCa-2 [28]) was “Active” and the Activity [29] was “Non-Toxic”. For the same compound, the Activity [30] was “Non-Toxic”, the Activity [31] was “Non-Toxic” and the Activity (Mus musculus [32]) was “Active”. The Activity (Mus musculus [33]) was “inactive” and the “Ratio IC50” value (MIA PaCa-2 [34]) was 10.
